Assay results from US12162935B2, “Regimens, compositions and methods with capsaicin and TNF-alpha inhibitor” (priority 2018, dated 2024).

Columns and labels:
CB2 receptor = assay: Immunoblotting for CB1 and CB2 receptors; type: cell-based, mouse; details: capsaicin 2.5 μM 24 h
Protocol: FIG. 10.A. UBOC-1 cells were treated with capsaicin (2.5 μM) for 24 h. Total protein was extracted and immunoblotting was performed for CB1 and CB2 receptors. B-actin was used for housekeeping and loading control. Capsaicin increased CB2 receptor staining. FIG. 10.B. Cochleae were harvested from rats treated with either oral PBS or oral capsaicin (20 mg/kg) for 24 h. Total RNA was harvested, converted to c-DNA and probed for CB2 receptor expression by q-PCR. GAPDH was used as housekeeping gene. […] FIG. 10.C. and FIG. 10.D. Cochleae were harvested from rats treated with PBS, fixed in 4% paraformaldehyde in PBS for 8 h. They were then decalcified in EDTA (10 mM), and mid modiolar sections of the cochleae were probed for the cannabinoid receptors subtypes, CB1 (FIG. 10.C.) and CB2 (FIG. 10.D.), while nuclei were stained with DAPI. Fluorescent images were obtained with a Leica confocal microscope. […] Magnification for OHC, spiral ganglion cells and stria vascularis (40×). Similar images were obtained from 3 different animals.
Total cell lysates were prepared using ice-cold lysis buffer containing 50 mM Tris HCl, 10 mM MgCl2 and 1 mM EDTA in the presence of protease inhibitors mixture and phosphatase inhibitor 1 (1:100) (Sigma, St. Louis, MO). The lysates were kept on ice for 5 min followed by centrifugation. The clear supernatant was transferred to a clean tube and discarded the pellet. […]

UB/OC-1 cells = assay: Cell viability assay (MTS assay); type: cell-based; details: capsaicin 2.5 μM prior to cisplatin 20 μM
Protocol: The in vitro UB/OC1 cell proliferation was performed by using the CellTiter 96® AQueous One Solution Cell Proliferation Assay Kit (Promega, Madison, WI), according to the manufacturer's instructions. 3,500 cells were seeded per well into a 96-well plate. […] After 48 h, 20 μl of CellTiter 96 AQueous One Solution reagent was added to each well in 100 μl of total volume of media. Cells were incubated for 1 h, and recorded absorbance at 490 nm using an ELISA plate reader. The absorbance is directly proportional to the number of living cells and is expressed as a percent relative to vehicle-treated cells.

rat cochlea = assay: Cochlear gene expression by qPCR after noise exposure; type: in vivo
Protocol: Cochleae were pared down to the bone, crushed in liquid nitrogen followed by extraction in 500 μl of TRI reagent. 0.1 ml of chloroform was added, and the tube was shaken vigorously for 15 seconds and centrifuged at 12,000×g for 15 min. RNA was extracted by washing the pellet with 0.5 ml ice-cold isopropanol followed by cold 75% treated ethanol. The ethanol was removed and the tube was air dried briefly. The RNA pellet was resuspended in nuclease free water and RNA levels were determined using optical density readings corresponding to wavelengths of 260 nm, 280 and 320 nm using a spectrophotometer (Eppendorf BioPhotometer, Hamburg, Germany).
500 ng of total RNA was converted to cDNA using iScript cDNA Synthesis Kit (Bio-Rad, Hercules, CA). The reaction mixture was set up as follows: Ing of total RNA, 4 μl of iScript reaction mix, 1 μl of iScript reverse transcriptase, nuclease free water to bring the total volume to 20 μl. The reaction mix was incubated at 25° C. for 5 min, 42° C. for 30 minutes and 85° C. for 5 minutes. This cDNA reaction mix was used for real time PCR, as described previously [Mukherjea et al., 2006]. Gene specific primer pairs were used for the various reactions and mRNA expression levels were normalized to the levels of GAPDH. The primer sets were purchased from Sigma Genosys (St. Louis, MO), and were as follows: […]

outer hair cells (OHCs) = assay: Outer hair cell damage by SEM and whole mount hair cell count; type: in vivo, rat
From the text: Immediately after completion of post-treatment ABRs, rats were euthanized and their cochleae were harvested and the specimens processed as described previously by [Kamimura et al.]. Sputter-coated cochlea were viewed and photographed with a Hitachi S-500 scanning electron microscope (Hitachi Ltd.). The resulting scanning electron micrographs were examined to determine qualitative morphological characteristics in various regions including the basal, middle, and apical turns of the rat cochlea.
Two representative areas of the basal turn, middle turn, and apex and hook portion were photographed. In each area, outer hair cells (OHCs) were counted in an area that was 10 pillar cell heads in length. The results are presented as the percentage hair cell damage per cochlear turn. At least three cochleae from different animals per treatment group were used.
To study the organization of the outer hair cells and inner hair cells, the cochlear whole mount technique was used. The cochleae was fixed in fresh 4% paraformaldehyde overnight, and then decalcified in […] EDTA for 2 weeks, (pH 7.3) while stirring at room temperature for 2 weeks. After decalcification, the cochleae was microdissected into basal, middle, and apical turns for whole-mount preparation.
For further processing, segments were washed with 1×PBS twice for 5 mins. For blocking, the segments were incubated in 10% blocking serum (horse serum) for 3 hrs at room temperature. The segments were incubated with primary antibody in 0.2% Triton prepared in PBS and refrigerated overnight. The following day, the segments were washed in PBS (three washes) for 5 mins each wash. The segments were washed in secondary antibody for 2 hrs at room temperature in the dark. The antibodies were then washed with PBS (three washes). Glass coverslips were then mounted on the segments with ProLong Diamond Antifade Mountant (Thermo Fisher Scientific) and incubated them at room temperature overnight and then stored them in 4 degrees. Images were procured using a Leica confocal microscope (Buffalo Grove, IL).
For hair cell count in whole mount preparations, two to three random areas from the basal turn from each treatment group separately were selected. Hair cells were counted in […] segments of the cochlea respectively. Counts were averaged across treatment group. This was further normalized as % of PBS (control) by taking the values of control as 100%.

## COc1cc(CNC(=O)CCCC/C=C/C(C)C)ccc1O [capsaicin, 8-methyl-N-vanillyl-trans-6-nonenamide]
CB2 receptor
  CB2 expression: increased CB2 expression
UB/OC-1 cells
  cisplatin-induced cell killing: blocked cisplatin-induced cell killing
Rat cochlea; oral Cap+NE
  Bax gene expression over oral PBS control: 0.86±0.1 fold
  COX2 gene expression over oral PBS control: 0.84±0.2 fold
  NOX3 gene expression over oral PBS control: 0.5±0.2 fold
  TNF-α gene expression over oral PBS control: 0.9±0.1 fold
  TRPV1 gene expression over oral PBS control: 0.85±0.2 fold
Rat cochlea; oral capsaicin alone
  Bax gene expression over oral PBS control: 0.69±0.1 fold
  COX2 gene expression over oral PBS control: 1±0.1 fold
  NOX3 gene expression over oral PBS control: 0.7±0.2 fold
  TNF-α gene expression over oral PBS control: 1±0.15 fold
  TRPV1 gene expression over oral PBS control: 0.9±0.1 fold
Outer hair cells (OHCs); SEM, oral capsaicin
  stereociliary damage induced by cisplatin: significantly reduced
Outer hair cells (OHCs); SEM, trans-tympanic capsaicin pretreatment, cisplatin
  loss of outer hair cells: no significant loss of outer hair cells
Outer hair cells (OHCs); whole mount, oral capsaicin alone
  hair cell damage: minimal hair cell damage
Outer hair cells (OHCs); whole mount, oral capsaicin prior to cisplatin
  outer hair cell loss compared to control: no significant outer hair cell loss
